Measured values taken from ChEMBL document CHEMBL1156319, “Synthesis, crystal and antibacterial studies of diversely functionalized tetrahydropyridin-4-ol” (2010).
Converted amounts (≈) assume the structure as drawn.

Legend:
Format in all cases: functional
Staphylococcus aureus [1] = test: Antibacterial activity against Staphylococcus aureus LCB0001 by two fold serial dilution method
[2] = system: Staphylococcus epidermidis; test: Antibacterial activity against Staphylococcus epidermidis LCB0003 by two fold serial dilution method
Enterococcus faecalis [3] = test: Antibacterial activity against Enterococcus faecalis LCB0005 by two fold serial dilution method
Enterococcus faecium [4] = test: Antibacterial activity against Enterococcus faecium LCB0009 by two fold serial dilution method
Escherichia coli [5] = test: Antibacterial activity against Escherichia coli LCB0010 by two fold serial dilution method
Escherichia coli [6] = test: Antibacterial activity against Escherichia coli LCB0011 by two fold serial dilution method
Escherichia coli [7] = test: Antibacterial activity against Escherichia coli LCB0012 by two fold serial dilution method
Pseudomonas aeruginosa = test: Antibacterial activity against Pseudomonas aeruginosa LCB0013 by two fold serial dilution method
Klebsiella pneumoniae = test: Antibacterial activity against Klebsiella pneumoniae LCB0014 by two fold serial dilution method
Haemophilus influenzae = test: Antibacterial activity against Haemophilus influenzae LCB0015 by two fold serial dilution method
Moraxella catarrhalis = test: Antibacterial activity against Moraxella catarrhalis LCB0016 by two fold serial dilution method
Staphylococcus aureus [8] = test: Antibacterial activity against methicillin-resistant Staphylococcus aureus LCB0002 by two fold serial dilution method
[9] = system: Staphylococcus epidermidis; test: Antibacterial activity against methicillin-resistant Staphylococcus epidermidis LCB0004 by two fold serial dilution method
Enterococcus faecalis [10] = test: Antibacterial activity against vancomycin-resistant Enterococcus faecalis LCB0006 by two fold serial dilution method
Enterococcus faecalis [11] = test: Antibacterial activity against vancomycin and Linezolid resistant Enterococcus faecalis LCB0007 by two fold serial dilution method
Enterococcus faecium [12] = test: Antibacterial activity against vancomycin-resistant Enterococcus faecium LCB0008 by two fold serial dilution method

Compound	MIC90 (Staphylococcus aureus [1]) [µg/mL]	MIC90 [2] [µg/mL]	MIC90 (Enterococcus faecalis [3]) [µg/mL]	MIC90 (Enterococcus faecium [4]) [µg/mL]	MIC90 (Escherichia coli [5]) [µg/mL]	MIC90 (Escherichia coli [6]) [µg/mL]	MIC90 (Escherichia coli [7]) [µg/mL]	MIC90 (Pseudomonas aeruginosa) [µg/mL]	MIC90 (Klebsiella pneumoniae) [µg/mL]	MIC90 (Haemophilus influenzae) [µg/mL]	MIC90 (Moraxella catarrhalis) [µg/mL]	MIC90 (Staphylococcus aureus [8]) [µg/mL]	MIC90 [9] [µg/mL]	MIC90 (Enterococcus faecalis [10]) [µg/mL]	MIC90 (Enterococcus faecalis [11]) [µg/mL]	MIC90 (Enterococcus faecium [12]) [µg/mL]
CCOC(=O)C1=C(O)CC(c2ccccc2)N(C(=O)C(C)Oc2ccc3ccccc3c2)C1c1ccccc1 (stereo not drawn)	> 128	> 128	> 128	> 128	> 128	> 128	> 128	> 128	> 128	> 128	> 128	–	–	–	–	–
CCOC(=O)C1=C(O)CC(c2ccccc2)N(C(=O)C(C)n2ccnc2)C1c1ccccc1 (stereo not drawn)	32 (≈ 71.8 µM)	> 128	> 128	> 128	> 128	> 128	64 (≈ 144 µM)	128 (≈ 287 µM)	128 (≈ 287 µM)	> 128	64 (≈ 144 µM)	–	–	–	–	–
CCOC(=O)C1=C(O)CC(c2ccccc2)N(C(=O)C(C)Sc2nc3ccccc3o2)C1c1ccccc1 (stereo not drawn)	> 128	> 128	> 128	> 128	> 128	> 128	> 128	> 128	> 128	> 128	> 128	–	–	–	–	–
CCOC(=O)C1=C(O)CC(c2ccccc2)N(C(=O)C(C)Sc2ccc3ccccc3c2)C1c1ccccc1 (stereo not drawn)	> 128	> 128	> 128	> 128	> 128	> 128	> 128	> 128	> 128	> 128	> 128	–	–	–	–	–
CCOC(=O)C1=C(O)CC(c2ccccc2)N(C(=O)C(C)n2nnc3ccccc32)C1c1ccccc1 (stereo not drawn)	> 128	> 128	> 128	> 128	> 128	> 128	> 128	> 128	> 128	> 128	> 128	–	–	–	–	–
CCOC(=O)C1=C(O)CC(c2ccccc2)N(C(=O)C(C)n2nnc(-c3ccccc3)n2)C1c1ccccc1 (stereo not drawn)	> 128	> 128	> 128	> 128	> 128	> 128	> 128	> 128	> 128	> 128	> 128	–	–	–	–	–
CC(=O)NC[C@H]1CN(c2ccc(N3CCOCC3)c(F)c2)C(=O)O1 [LINEZOLID]	2 (≈ 5.93 µM)	4 (≈ 11.9 µM)	4 (≈ 11.9 µM)	4 (≈ 11.9 µM)	> 128	16 (≈ 47.4 µM)	128 (≈ 379 µM)	> 128	> 128	16 (≈ 47.4 µM)	4 (≈ 11.9 µM)	2 (≈ 5.93 µM)	8 (≈ 23.7 µM)	4 (≈ 11.9 µM)	64 (≈ 190 µM)	2 (≈ 5.93 µM)
N[C@@H]1[C@H]2CN(c3nc4c(cc3F)c(=O)c(C(=O)O)cn4-c3ccc(F)cc3F)C[C@@H]12 [TROVAFLOXACIN]	< 0.0625	< 0.0625	< 0.0625	32 (≈ 76.9 µM)	< 0.0625	< 0.0625	< 0.0625	0.5 (≈ 1.2 µM)	0.125 (≈ 0.3 µM)	< 0.0625	< 0.0625	2 (≈ 4.8 µM)	< 0.0625	16 (≈ 38.4 µM)	16 (≈ 38.4 µM)	128 (≈ 307 µM)
